Structures are written as SMILES. Values after ≈ are worked out from the molar mass of the structure shown. Active and inactive are the calls of the source. No cut-off for these calls is given here.

The values that follow come from ChEMBL document CHEMBL1671731, “Fluoroquinolone efflux by the plasmid-mediated multidrug efflux pump QacB variant QacBIII in Staphylococcus aureus” (2010).

The test system of test [1] is Staphylococcus aureus. The experiment in a line: Antimicrobial activity against Staphylococcus aureus RDN1 harboring cloned pTZ2182-encoded QacBII gene by agar dilution method. The test is classed as functional. Background: In agar dilution the substance is mixed into plates at graded concentrations.
Test [2] has as its system Staphylococcus aureus. The experiment in a line: Antimicrobial activity against Staphylococcus aureus RDN1 harboring cloned pTZN10 containing cat and bla genes by agar dilution method. It counts as functional.
Test [3] concerns Staphylococcus aureus. Briefly: Antimicrobial activity against Staphylococcus aureus RDN1 harboring cloned pTZ2238-encoded QacBIV S151I mutant gene by agar dilution method. The test is classed as functional.
Test [4] concerns Staphylococcus aureus. The experiment in a line: Antimicrobial activity against Staphylococcus aureus RDN1 harboring cloned pTZ2238-encoded QacBIV E377G mutant gene by agar dilution method. The test is classed as functional.
Test [5] has as its system Staphylococcus aureus. The experiment in a line: Antimicrobial activity against Staphylococcus aureus RDN1 harboring cloned pTZ2396-encoded QacA gene by agar dilution method. It counts as functional.
The subject of test [6] is Staphylococcus aureus. Briefly: Antimicrobial activity against Staphylococcus aureus RDN1 harboring cloned pTZ2238-encoded QacBIV gene by agar dilution method. The test is classed as functional.
The test system of test [7] is Staphylococcus aureus. The experiment in a line: Antimicrobial activity against Staphylococcus aureus RDN1 harboring cloned pTZ2162-encoded QacBIII E320A mutant gene by agar dilution method. It counts as functional.
Test [8] deals with Staphylococcus aureus. The experiment in a line: Antimicrobial activity against Staphylococcus aureus RDN1 harboring cloned pTZ2238-encoded QacBIV A184V mutant gene by agar dilution method. It counts as functional.
The subject of test [9] is Staphylococcus aureus. Briefly: Antimicrobial activity against Staphylococcus aureus RDN1 harboring cloned pTZ2238-encoded QacBIV A19T mutant gene by agar dilution method. It counts as functional.
Test [10] has as its system Staphylococcus aureus. Briefly: Antimicrobial activity against Staphylococcus aureus RDN1 harboring cloned pTZ2162-encoded QacBIII gene by agar dilution method. It counts as functional.
Test [11] in a line: Activity of antiseptic efflux protein QacBIII expressed in Staphylococcus aureus RDN1 assessed as decrease in compound accumulation in presence of CCCP.
Test [12] is described as follows: Activity of antiseptic efflux protein QacBIII expressed in Staphylococcus aureus RDN1 assessed as decrease in compound accumulation.

For `N=C(NCCCCCCNC(=N)NC(=N)Nc1ccc(Cl)cc1)NC(=N)Nc1ccc(Cl)cc1.O=C(O)[C@H](O)[C@@H](O)[C@H](O)[C@H](O)CO`, the minimal inhibitory concentration (MIC) (usually the least concentration at which growth counts as inhibited) in the test on Staphylococcus aureus [1] came to 4 µg/mL; against Staphylococcus aureus [2], 0.25 µg/mL; in the test on Staphylococcus aureus [3], 4 µg/mL; in the test with Staphylococcus aureus [4] it was 2 µg/mL; against Staphylococcus aureus [5], 2 µg/mL; in the test on Staphylococcus aureus [6], 4 µg/mL. The minimal inhibitory concentration (MIC) is 4 µg/mL against Staphylococcus aureus [7], 4 µg/mL against Staphylococcus aureus [8], 4 µg/mL in the test with Staphylococcus aureus [9] and 2 µg/mL against Staphylococcus aureus [10].
As to `N=C(N)c1ccc(OCCCCCOc2ccc(C(=N)N)cc2)cc1.O=S(=O)(O)CCO`, the MIC with Staphylococcus aureus [1] stood at 512 µg/mL; against Staphylococcus aureus [2] it was 1 µg/mL; against Staphylococcus aureus [3] it was 1020 µg/mL; against Staphylococcus aureus [4], 512 µg/mL; in the test with Staphylococcus aureus [5], 512 µg/mL; in the test with Staphylococcus aureus [6] it was 1020 µg/mL. Besides, the minimum inhibitory concentration (MIC) in the test with Staphylococcus aureus [7] stood at 512 µg/mL; against Staphylococcus aureus [8], 1020 µg/mL; against Staphylococcus aureus [9] it was 1020 µg/mL; with Staphylococcus aureus [10], 512 µg/mL.
`O=C(O)c1cn(C2CC2)c2cc(N3CCNCC3)c(F)cc2c1=O` [CIPROFLOXACIN]: the MIC with Staphylococcus aureus [1] was found to be 0.06 µg/mL (≈ 0.181 µM); against Staphylococcus aureus [2], 0.06 µg/mL (≈ 0.181 µM); against Staphylococcus aureus [5], 0.13 µg/mL (≈ 0.392 µM); in the test with Staphylococcus aureus [6], 0.06 µg/mL (≈ 0.181 µM); against Staphylococcus aureus [7], 0.06 µg/mL (≈ 0.181 µM); in the test on Staphylococcus aureus [10], 0.25 µg/mL (≈ 0.754 µM). Moreover, the result in test [11] was inactive. Also, the outcome in test [12] was Active.
With `CC(=O)NCC(=O)O.N=C(N)c1ccc(/N=N/Nc2ccc(C(=N)N)cc2)cc1` [DIMINAZEN ACETURATE], the MIC against Staphylococcus aureus [1] came out at 512 µg/mL; in the test on Staphylococcus aureus [2], 4 µg/mL; in the test with Staphylococcus aureus [3], 2050 µg/mL; in the test with Staphylococcus aureus [4] it was 512 µg/mL; with Staphylococcus aureus [5] it was 2050 µg/mL; in the test with Staphylococcus aureus [6], 2050 µg/mL. Besides, the MIC in the test with Staphylococcus aureus [7] is 512 µg/mL; in the test with Staphylococcus aureus [8], 2050 µg/mL; against Staphylococcus aureus [9], 2050 µg/mL; in the test on Staphylococcus aureus [10] it was 1020 µg/mL.
Consider `C[n+]1c2cc(N)ccc2cc2ccc(N)cc21.[Cl-]` [EUFLAVINE], for which the MIC is 1020 µg/mL against Staphylococcus aureus [1]; 1 µg/mL in the test on Staphylococcus aureus [2]; 1020 µg/mL with Staphylococcus aureus [3]; 1020 µg/mL in the test on Staphylococcus aureus [4]; 1020 µg/mL against Staphylococcus aureus [5]; 1020 µg/mL in the test on Staphylococcus aureus [6]. Moreover, the MIC stood at 1020 µg/mL with Staphylococcus aureus [7], 1020 µg/mL with Staphylococcus aureus [8], 1020 µg/mL in the test with Staphylococcus aureus [9] and 256 µg/mL against Staphylococcus aureus [10].
`CN(C)c1ccc(C(=C2C=CC(=[N+](C)C)C=C2)c2ccc(N(C)C)cc2)cc1.[Cl-]` [GENTIAN VIOLET]: the MIC in the test with Staphylococcus aureus [1] was at least 1 µg/mL; against Staphylococcus aureus [2], 0.13 µg/mL; against Staphylococcus aureus [3], 0.5 µg/mL; against Staphylococcus aureus [4] it was at least 1 µg/mL; against Staphylococcus aureus [5], at least 1 µg/mL; with Staphylococcus aureus [6], 0.5 µg/mL. The MIC is at least 1 µg/mL with Staphylococcus aureus [7], 0.5 µg/mL with Staphylococcus aureus [8], 0.5 µg/mL in the test with Staphylococcus aureus [9] and 0.5 µg/mL against Staphylococcus aureus [10].
On to `CC[n+]1c(-c2ccccc2)c2cc(N)ccc2c2ccc(N)cc21.[Br-]` [HOMIDIUM BROMIDE], for which the MIC with Staphylococcus aureus [1] is at least 2050 µg/mL; against Staphylococcus aureus [2], 1 µg/mL; against Staphylococcus aureus [3], at least 2050 µg/mL; in the test on Staphylococcus aureus [4] it was at least 2050 µg/mL; in the test on Staphylococcus aureus [5], at least 2050 µg/mL; in the test with Staphylococcus aureus [6], at least 2050 µg/mL. The MIC was at least 2050 µg/mL against Staphylococcus aureus [7], at least 2050 µg/mL against Staphylococcus aureus [8], at least 2050 µg/mL in the test on Staphylococcus aureus [9] and 256 µg/mL in the test with Staphylococcus aureus [10].
As for `C[C@H]1COc2c(N3CCN(C)CC3)c(F)cc3c(=O)c(C(=O)O)cn1c23.C[C@H]1COc2c(N3CCN(C)CC3)c(F)cc3c(=O)c(C(=O)O)cn1c23.O` [LEVOFLOXACIN], the MIC against Staphylococcus aureus [1], with Staphylococcus aureus [2], in the test with Staphylococcus aureus [5], with Staphylococcus aureus [6], with Staphylococcus aureus [7] and in the test with Staphylococcus aureus [10] was 0.25 µg/mL each time.
In the case of `CCn1cc(C(=O)O)c(=O)c2cc(F)c(N3CCNCC3)cc21` [NORFLOXACIN], the MIC against Staphylococcus aureus [1] came out at 0.13 µg/mL (≈ 0.407 µM); against Staphylococcus aureus [2] it was 0.13 µg/mL (≈ 0.407 µM); with Staphylococcus aureus [5] it was 0.25 µg/mL (≈ 0.783 µM); in the test with Staphylococcus aureus [6], 0.13 µg/mL (≈ 0.407 µM); in the test with Staphylococcus aureus [7], 0.13 µg/mL (≈ 0.407 µM); against Staphylococcus aureus [10], 0.5 µg/mL (≈ 1.57 µM). Also, the result in [11] was inactive. For the same compound, the outcome in test [12] was Active.
As to `[Cl-].c1ccc([P+](c2ccccc2)(c2ccccc2)c2ccccc2)cc1` [TETRAPHENYLPHOSPHONIUM CHLORIDE], the MIC was 256 µg/mL with Staphylococcus aureus [1]; 4 µg/mL in the test on Staphylococcus aureus [2]; 512 µg/mL against Staphylococcus aureus [3]; 512 µg/mL in the test with Staphylococcus aureus [4]; 256 µg/mL against Staphylococcus aureus [5]; 512 µg/mL in the test on Staphylococcus aureus [6]. The MIC in the test with Staphylococcus aureus [7] stood at 256 µg/mL; in the test with Staphylococcus aureus [8], 512 µg/mL; with Staphylococcus aureus [9], 512 µg/mL; with Staphylococcus aureus [10], 512 µg/mL.
